In ChEMBL document CHEMBL1201862, “PubChem BioAssay data set” (2004):
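Briefly, cells in 96-well plates were exposed to five compound concentrations for 48 h, and endpoints were estimated by linear interpolation. GI50 marks 50% less growth.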 Activity calls are given as the source filed them. Cut-off read from the data, not from the text of the source: active = GI50 up to about 1.1 µM and inactive = higher.

Key:
Assay in all cases: growth of human tumour cells (NCI), 48 h
786-0 = system: 786-0
A498 = system: A498
A549 = system: A549
M14 = system: M14
Malme-3M = system: Malme-3M
NCI-H460 = system: NCI-H460
NCI-H522 = system: NCI-H522
SF-539 = system: SF-539
SK-MEL-5 = system: SK-MEL-5
SNB-78 = system: SNB-78
TK-10 = system: TK-10
U-251 = system: U-251
EKVX = system: EKVX
HOP-92 = system: HOP-92
HT-29 = system: HT-29

Measured: GI50

COC(=O)C1CC(OC(C)=O)C=C2C(=O)CCC21 (stereo not drawn)
inactive: 786-0 18.5 µM | A498 37.9 µM | A549 37.2 µM | M14 16.7 µM | Malme-3M 19.6 µM | NCI-H460 17.1 µM | NCI-H522 1.89 µM | SF-539 20.6 µM | SK-MEL-5 20.5 µM | SNB-78 24.1 µM | TK-10 29.4 µM | U-251 28.3 µM

COc1cc(/C=N/c2nncs2)ccc1O
inactive: 786-0 > 100 µM | A498 > 100 µM | A549 > 100 µM | EKVX > 100 µM | HOP-92 > 100 µM | HT-29 > 100 µM | M14 > 100 µM | Malme-3M > 100 µM | NCI-H460 > 100 µM | SF-539 > 100 µM | SK-MEL-5 > 100 µM | SNB-78 > 100 µM | TK-10 > 100 µM | U-251 > 100 µM

COc1cc(/C=C(\C#N)C(=O)c2ccccc2)cc(OC)c1OC
inactive: 786-0 > 100 µM | A549 > 100 µM | EKVX > 100 µM | HOP-92 83.4 µM | HT-29 > 100 µM | M14 > 100 µM | Malme-3M > 100 µM | NCI-H460 > 100 µM | NCI-H522 > 100 µM | SF-539 > 100 µM | SK-MEL-5 > 100 µM | SNB-78 > 100 µM | TK-10 > 100 µM | U-251 > 100 µM

CCC(=O)N1C(=O)OCC1C(C)C (stereo not drawn)
inactive: 786-0 > 100 µM | A498 > 100 µM | A549 > 100 µM | EKVX > 100 µM | HOP-92 > 100 µM | HT-29 > 100 µM | M14 > 100 µM | Malme-3M > 100 µM | NCI-H460 > 100 µM | SF-539 > 100 µM | SK-MEL-5 > 100 µM | SNB-78 > 100 µM | TK-10 > 100 µM | U-251 > 100 µM

Cc1cc2c(=O)cc(-c3ccc(C(=O)O)cc3)oc2c(C(N)=O)c1C
inactive: 786-0 > 100 µM | A498 > 100 µM | A549 > 100 µM | EKVX > 100 µM | HOP-92 > 100 µM | HT-29 > 100 µM | M14 > 100 µM | Malme-3M > 100 µM | NCI-H460 > 100 µM | NCI-H522 > 100 µM | SF-539 > 100 µM | SK-MEL-5 > 100 µM | SNB-78 > 100 µM | TK-10 > 100 µM | U-251 > 100 µM

CCCCC(C(=O)CCC(=O)Nc1ccc(Cl)cc1)C(=O)C(C)C (stereo not drawn)
inactive: 786-0 > 100 µM | A498 > 100 µM | A549 > 100 µM | EKVX > 100 µM | HOP-92 > 100 µM | HT-29 > 100 µM | M14 > 100 µM | Malme-3M > 100 µM | NCI-H460 > 100 µM | NCI-H522 > 100 µM | SF-539 > 100 µM | SK-MEL-5 > 100 µM | SNB-78 > 100 µM | TK-10 > 100 µM | U-251 > 100 µM

Cc1cccc(C)c1NC(=O)C(=O)C1C(=O)NC(=O)NC1=O
inactive: 786-0 > 100 µM | A498 > 100 µM | A549 > 100 µM | EKVX > 100 µM | HOP-92 > 100 µM | HT-29 > 100 µM | M14 > 100 µM | Malme-3M > 100 µM | NCI-H460 > 100 µM | NCI-H522 > 100 µM | SF-539 > 100 µM | SK-MEL-5 > 100 µM | SNB-78 > 100 µM | TK-10 > 100 µM | U-251 > 100 µM

COC(=O)c1c(OC)cccc1C(=O)O
inactive: 786-0 > 100 µM | A498 > 100 µM | A549 > 100 µM | EKVX > 100 µM | HT-29 > 100 µM | M14 > 100 µM | Malme-3M > 100 µM | NCI-H460 > 100 µM | NCI-H522 > 100 µM | SF-539 > 100 µM | SK-MEL-5 > 100 µM | SNB-78 > 100 µM | TK-10 > 100 µM | U-251 > 100 µM

CC1CN1c1c(C(=O)/C=C/c2ccccc2)c(-c2ccccc2)nn(C)c1=O (stereo not drawn)
inactive: 786-0 15.9 µM | A498 17.7 µM | A549 28.6 µM | EKVX 17.3 µM | HOP-92 13.1 µM | HT-29 15.7 µM | M14 17.1 µM | Malme-3M 19.7 µM | NCI-H460 19.1 µM | NCI-H522 13.4 µM | SF-539 16.9 µM | SK-MEL-5 15.9 µM | SNB-78 18.2 µM | TK-10 25.8 µM | U-251 16.9 µM
